Results on 18 compounds are retold here after US11091482B2, “Isoxazolyl-carbonyloxy azabicyclo[3.2.1]octanyl compounds as FXR activators” (ARDELYX, INC., priority 2016, dated 2021).

Read-outs that look alike come from different tables or passages of the source.

In assay [1] the target is human Farnesoid X receptor ligand-binding domain/Gal4 DNA binding domain chimera (Homo sapiens (Human), UniProt Q96RI1). The experiment in a line: Cell-based FXR beta-lactamase reporter assay (FXR-UAS-bla HEK 293T cells). Particulars: for Emax: HEK-293T, read-out: % Efficacy; for EC50 / FXR pEC50 / % Efficacy: cellular FXR beta-lactamase reporter assay; for EC50 / FXR pEC50: -log EC50; for EC50: read-out: FXR pEC50 (converted); for % Efficacy: extent of activation relative to GW4064. As for the experimental part: FXR activation was measured using a cell line and procedure obtained from Life Technologies (Cat #K1691). FXR-UAS-bla HEK 293T cells contain a human Farnesoid X receptor ligand-binding domain/Gal4 DNA binding domain chimera stably integrated into the CellSensor® UAS-bla HEK 293T cell line. The CellSensor® UAS-bla HEK 293T contains a beta-lactamase reporter gene under control of a UAS response element stably integrated into HEK 293T cells. Activation of FXR by bound ligands results in transcriptional activation of the beta-lactamase reporter gene, which is detected via assay of beta-lactamase activity. Cells are harvested and diluted into assay medium containing phenol red-free DMEM supplemented with 2% Charcoal-stripped FBS, pyruvate, non-essential amino acids. Cells are then transferred to a 384 well assay plate. Test compounds are dissolved in DMSO and a 3-fold serial dilution series is generated, then further diluted into assay medium. […] A FRET-based […] is loaded into cells as its acetomethoxy ester. Intracellular esterases liberate free CCF4, a cephalosporin core linking 7-hydroxycoumarin to fluorescein. In the presence of beta-lactamase activity produced in the presence of FXR agonists, cleavage of CCF4 spatially separates the two dyes and disrupts FRET, so that exciting the coumarin at 409 nm now produces a blue fluorescence signal at 447 nm. The change in FRET signal is plotted against the test compound concentration and fit to a 3-parameter logistical equation.
Background: In a reporter assay the amount or activity of a reporter protein is the signal.

Assay [2] concerns the target ligand binding domain of human FXR (Homo sapiens (Human), UniProt Q96RI1). The experiment in a line: FXR ligand binding assay (LanthaScreen FRET).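 For all read-outs here: TR-FRET coactivator recruitment: ligand-induced binding of fluorescein-labelled SRC2-2 peptide to GST-tagged FXR LBD detected via Tb anti-GST antibody, serial compound dilutions, 3-parameter logistic fit.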 The note with it: for Emax: read-out: % Efficacy. On the technique in general: TR-FRET usually uses a lanthanide donor and a delayed reading to cut background.
Protocol: The affinity of FXR ligands for the ligand binding domain of FXR was determined using a commercially available human FXR ligand binding assay (LanthaScreen, Thermofisher Cat #PV4833). […] Binding of FXR ligands to the FXR ligand binding domain promotes binding of the fluorescein-labelled SRC2-2 peptide. This causes a FRET signal between the terbium-labelled anti-GST antibody and the fluorescein-labelled SRC peptide which are both bound to the FXR ligand binding domain.
Test compounds are dissolved in DMSO and a 3-fold serial dilution series is generated, then further diluted into assay buffer. The compounds are mixed with 5 nM GST-tagged FXR ligand binding domain, 5 nM Tb-labelled anti-GST antibody and 500 nM fluorcscein-labelled SRC2-2 peptide in a pH 7.4 buffer. The reaction is incubated at room temperature for 1 hour, then the FRET signal is measured as the ratio of the 520 nm/495 nm emission following excitation at 340 nm. The change in FRET signal is plotted against the test article concentration and fit to a 3-parameter logistical equation.
The mark [3] stands for this setting: FXR ligand binding assay, -log EC50.
Where [4] appears, read: FXR ligand binding assay, extent of activation relative to GW4064.

Chain of human Farnesoid X receptor ligand-binding domain/Gal4 DNA binding domain chimera (Q96RI1 262-486, stated change not applied): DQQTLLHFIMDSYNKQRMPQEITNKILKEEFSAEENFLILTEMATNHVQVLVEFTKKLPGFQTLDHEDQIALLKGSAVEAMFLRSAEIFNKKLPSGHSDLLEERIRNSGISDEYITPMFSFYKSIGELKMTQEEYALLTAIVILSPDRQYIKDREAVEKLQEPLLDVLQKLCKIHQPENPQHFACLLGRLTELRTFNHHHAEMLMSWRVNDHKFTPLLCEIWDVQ
Chain of ligand binding domain of human FXR (Q96RI1 262-486): as the sequence (Q96RI1 262-486, stated change not applied) above

Turning to `COc1cc2nc(N3[C@@H]4CC[C@H]3C[C@@H](OC(=O)c3c(C56CCC(CC5)CC6)noc3C3CC3)C4)sc2cc1C(=O)O` [Compound I-22, 2-[(1R,3R,5S)-3-(3-{bicyclo[2.2.2]octan-1-yl}-5-cyclopropyl-1,2-oxazole-4-carbonyloxy)-8-azabicyclo[3.2.1]octan-8-yl]-5-methoxy-1,3-benzothiazole-6-carboxylic Acid], in assay [1], the Emax turned out to be 44% and the EC50 is 398 nM.

As to `O=C(O)c1ccc(N2[C@@H]3CC[C@H]2C[C@@H](OC(=O)c2c(-c4c(Cl)cccc4Cl)noc2C2CC2)C3)cc1C(F)(F)F` [Compound I-37, 4-[(1R,3R,5S)-3-[5-cyclopropyl-3-(2,6-dichlorophenyl)-1,2-oxazole-4-carbonyloxy]-8-azabicyclo[3.2.1]octan-8-yl]-2-(trifluoromethyl)benzoic acid], the “FXR pEC50” value in assay [2] (setting [3]) is on record as 7.7. In addition, the Emax in assay [2] is 50%. In assay [1], the Emax worked out at 93% and the EC50 is 100 nM.

As to `CCCCCS(=O)(=O)NC(=O)c1ccc(N2[C@@H]3CC[C@H]2C[C@@H](OC(=O)c2c(-c4c(Cl)cccc4Cl)noc2C2CC2)C3)cc1` [Compound I-46, (1R,3R,5S)-8-{4-[(pentane-1-sulfonyl)carbamoyl]phenyl}-8-azabicyclo[3.2.1]octan-3-yl 5-cyclopropyl-3-(2,6-dichlorophenyl)-1,2-oxazole-4-carboxylate], the figures for the “FXR pEC50” value in assay [2] (setting [3]) and in assay [1] were 8.2 and 8.5, respectively. Moreover, the “% Efficacy” value in assay [1] amounted to 110%.

On to `O=C(Cc1c(-c2c(Cl)cccc2Cl)noc1C1CC1)O[C@H]1C[C@H]2CC[C@@H](C1)N2c1nc2c(F)cc(C(=O)O)cc2s1` [Compound I-32, 2-[(1R,3R,5S)-3-({2-[5-cyclopropyl-3-(2,6-dichlorophenyl)-1,2-oxazol-4-yl]acetyl}oxy)-8-azabicyclo[3.2.1]octan-8-yl]-4-fluoro-1,3-benzothiazole-6-carboxylic Acid], for which the “FXR pEC50” value in assay [2] (setting [3]) was found to be 7.4; in assay [1], 6.4. Besides, the “% Efficacy” value in assay [2] (setting [4]) worked out at 34%; in assay [1] it was 86%.

`O=C(O)c1cc(C(F)(F)F)c2nc(N3[C@@H]4CC[C@H]3C[C@@H](OC(=O)c3c(-c5c(Cl)cccc5Cl)noc3C3CC3)C4)sc2c1` [Compound I-10, 2-[(1R,3R,5S)-3-[5-cyclopropyl-3-(2,6-dichlorophenyl)-1,2-oxazole-4-carbonyloxy]-8-azabicyclo[3.2.1]octan-8-yl]-4-(trifluoromethyl)-1,3-benzothiazole-6-carboxylic Acid]: the Emax in assay [2] was found to be 102%; in assay [1], 104%. For the same compound, in assay [1], the EC50 is 25.1 nM.

Take `O=C(O)c1ccc(N2[C@@H]3CC[C@H]2C[C@@H](OC(=O)c2c(-c4c(Cl)cccc4Cl)noc2C2CC2)C3)cc1` [Compound I-34, 4-[(1R,3R,5S)-3-[5-Cyclopropyl-3-(2,6-dichlorophenyl)-1,2-oxazole-4-carbonyloxy]-8-azabicyclo[3.2.1]octan-8-yl]benzoic Acid]: the Emax in assay [2] came out at 79%. Also, in assay [1], the Emax was 107% and the EC50 is 20 nM.

Regarding `O=C(O)c1cc(F)c2nc(N3[C@@H]4CC[C@H]3C[C@@H](OC(=O)c3c(C5CCC6(CC5)CC6)noc3C3CC3)C4)sc2c1` [Compound I-19, 2-[(1R,3R,5S)-3-(5-cyclopropyl-3-{spiro[2.5]octan-6-yl}-1,2-oxazole-4-carbonyloxy)-8-azabicyclo[3.2.1]octan-8-yl]-4-fluoro-1,3-benzothiazole-6-carboxylic Acid], the “FXR pEC50” value came to 7.2 in assay [2] (setting [3]) and 6.8 in assay [1]. For the same compound, the “% Efficacy” value in assay [2] (setting [4]) was determined as 55%; in assay [1] it was 79%.

For `CS(=O)(=O)NC(=O)c1ccc(N2[C@@H]3CC[C@H]2C[C@@H](OC(=O)c2c(-c4c(Cl)cccc4Cl)noc2C2CC2)C3)cc1` [Compound I-44, (1R,3R,5S)-8-[4-(methanesulfonylcarbamoyl)phenyl]-8-azabicyclo[3.2.1]octan-3-yl 5-cyclopropyl-3-(2,6-dichlorophenyl)-1,2-oxazole-4-carboxylate], the Emax in assay [2] amounted to 124%. For the same compound, in assay [1], the Emax is 117% and the EC50 is 6.31 nM.

`COc1cc(C(=O)O)ccc1N1[C@@H]2CC[C@H]1C[C@@H](OC(=O)c1c(-c3c(Cl)cccc3Cl)noc1C1CC1)C2` [Compound I-40, 4-[(1R,3R,5S)-3-[5-cyclopropyl-3-(2,6-dichlorophenyl)-1,2-oxazole-4-carbonyloxy]-8-azabicyclo[3.2.1]octan-8-yl]-3-methoxybenzoic acid]: the EC50 in assay [2] (FXR ligand binding assay, -log EC50, read-out: FXR pEC50 (converted)) was 63.1 nM; in assay [1], 39.8 nM. Also, the Emax came to 103% in assay [2] and 117% in assay [1].

On to `Cn1c(N2[C@@H]3CC[C@H]2C[C@@H](OC(=O)c2c(-c4c(Cl)cccc4Cl)noc2C2CC2)C3)nc2c(F)cc(C(=O)O)cc21` [Compound I-31, 2-[(1R,3R,5S)-3-[5-cyclopropyl-3-(2,6-dichlorophenyl)-1,2-oxazole-4-carbonyloxy]-8-azabicyclo[3.2.1]octan-8-yl]-4-fluoro-1-methyl-1H-1,3-benzodiazole-6-carboxylic Acid], for which the “% Efficacy” value in assay [2] worked out at 63%; in assay [1] it was 100%. The “FXR pEC50” value in assay [2] (setting [3]) was found to be 6.6; in assay [1], 6.4.

For the compound `Cc1onc(-c2c(Cl)cccc2Cl)c1C(=O)O[C@H]1C[C@H]2CC[C@@H](C1)N2c1nc2c(F)cc(C(=O)O)cc2s1` [Compound I-23, 2-[(1R,3S,5S)-3-[3-(2,6-dichlorophenyl)-5-methyl-1,2-oxazole-4-carbonyloxy]-8-azabicyclo[3.2.1]octan-8-yl]-4-fluoro-1,3-benzothiazole-6-carboxylic Acid], the “FXR pEC50” value in assay [2] (setting [3]) was 7.1; in assay [1], 6.8. The figures for the “% Efficacy” value in assay [2] (setting [4]) and in assay [1] were 37% and 100%, respectively.

As for `CC1(c2onc(-c3c(Cl)cccc3Cl)c2C(=O)OC2C[C@H]3CC[C@@H](C2)N3c2nc3c(F)cc(C(=O)O)cc3s2)CC1` (single isomer, unassigned) [Compound I-26], the “FXR pEC50” value is reported as 7.4 in assay [2] (setting [3]) and 7.5 in assay [1].

For the compound `O=C(O)c1cc(F)c2nc(N3[C@@H]4CC[C@H]3C[C@@H](OC(=O)c3c(-c5ccccc5OC(F)(F)F)noc3C3CC3)C4)sc2c1` [Compound I-14, 2-[(1R,3R,5S)-3-{5-cyclopropyl-3-[2-(trifluoromethoxy)phenyl]-1,2-oxazole-4-carbonyloxy}-8-azabicyclo[3.2.1]octan-8-yl]-4-fluoro-1,3-benzothiazole-6-carboxylic Acid], the “FXR pEC50” value in assay [2] (setting [3]) came out at 7.6; in assay [1], 8.1. The “% Efficacy” value worked out at 147% in assay [2] (setting [4]) and 116% in assay [1].

Regarding `O=C(NS(=O)(=O)CCCO)c1ccc(N2[C@@H]3CC[C@H]2C[C@@H](OC(=O)c2c(-c4c(Cl)cccc4Cl)noc2C2CC2)C3)cc1` [Compound I-50, (1R,3R,5S)-8-{4-[(3-hydroxypropanesulfonyl)carbamoyl]phenyl}-8-azabicyclo[3.2.1]octan-3-yl 5-cyclopropyl-3-(2,6-dichlorophenyl)-1,2-oxazole-4-carboxylate], in assay [1], the Emax was determined as 102% and the EC50 was 158 nM.

As to `O=C(O)c1cccc(S(=O)(=O)N2[C@@H]3CC[C@H]2C[C@@H](OC(=O)c2c(-c4c(Cl)cccc4Cl)noc2C2CC2)C3)c1` [Compound I-55, 3-{[(1R,3R,5S)-3-[5-cyclopropyl-3-(2,6-dichlorophenyl)-1,2-oxazole-4-carbonyloxy]-8-azabicyclo[3.2.1]octan-8-yl]sulfonyl}benzoic Acid], in assay [1], the Emax amounted to 96% and the EC50 is 1000 nM.

As to `COc1cc(C(=O)O)cc2sc(N3[C@@H]4CC[C@H]3C[C@@H](OC(=O)c3c(C56CCC(CC5)CC6)noc3C3CC3)C4)nc12` [Compound I-21, 2-[(1R,3R,5S)-3-(3-{bicyclo[2.2.2]octan-1-yl}-5-cyclopropyl-1,2-oxazole-4-carbonyloxy)-8-azabicyclo[3.2.1]octan-8-yl]-4-methoxy-1,3-benzothiazole-6-carboxylic Acid], in assay [1], the Emax is 44%.

With `NC(=O)c1cc(F)c2nc(N3[C@@H]4CC[C@H]3C[C@@H](OC(=O)c3c(-c5c(Cl)cccc5Cl)noc3C3CC3)C4)sc2c1` [Compound I-3, (1R,3R,5S)-8-(6-carbamoyl-4-fluoro-1,3-benzothiazol-2-yl)-8-azabicyclo[3.2.1]octan-3-yl 5-cyclopropyl-3-(2,6-dichlorophenyl)-1,2-oxazole-4-carboxylate], the Emax in assay [2] came out at 60%.

In the case of `Cn1c(N2[C@@H]3CC[C@H]2C[C@@H](OC(=O)Cc2c(-c4c(Cl)cccc4Cl)noc2C2CC2)C3)nc2c(F)cc(C(=O)O)cc21` [Compound I-33, 2-[(1R,3R,5S)-3-({2-[5-cyclopropyl-3-(2,6-dichlorophenyl)-1,2-oxazol-4-yl]acetyl}oxy)-8-azabicyclo[3.2.1]octan-8-yl]-4-fluoro-1-methyl-1H-1,3-benzodiazole-6-carboxylic Acid], the Emax in assay [1] amounted to 72%.
